Laboratory results taken from patent US20100298141A1, “SUBSTITUTED PYRIDINE N-OXIDE HERBICIDES” (E. I. DU PONT DE NEMOURS AND COMPANY, priority 2007, published 2010).

Legend:
common ragweed = assay: Test C pre-/postemergence test; assay type: in vivo, Ambrosia elation; details: Postemergence; for Plant response rating, Ragweed: scale 0 to 100, 0 no effect, 100 complete control
Outline: (§1)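 Seeds were planted and treated preemergence with test chemical in a non-phytotoxic solvent mixture containing surfactant. Postemergence applications of the same formulation went onto plants 2 to 18 cm tall (1- to 4-leaf stage). A dash marks no test result.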

giant foxtail [1] = assay: Test A pre-/postemergence greenhouse test; assay type: in vivo, Setaria faberi; details: for Plant response rating, Foxtail, Giant: 0 to 100 scale where 0 is no effect and 100 is complete control; for Foxtail, Giant plant response rating: 0 to 100 scale
Outline: (§2)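 Planting was into mixed loam soil and sand; preemergence treatment followed as a directed soil spray. Concurrently, emerged plants (one- to two-leaf, 2–10 cm) received postemergence applications of identically formulated compound (non-phytotoxic solvent, surfactant). After approximately ten days under greenhouse conditions, injury was judged by eye against untreated plants.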

redroot pigweed = assay: Test A pre-/postemergence greenhouse test; assay type: in vivo, Amaranthus retroflexus; details: for Plant response rating, Pigweed: 0 to 100 scale where 0 is no effect and 100 is complete control; for Pigweed plant response rating: 0 to 100 scale
Outline: as §2

bermudagrass = assay: Test C pre-/postemergence test; assay type: in vivo, Cynodon dactylon; details: Postemergence; for Plant response rating, Bermudagrass: scale 0 to 100, 0 no effect, 100 complete control
Outline: as §1

duck salad = assay: Test C flooded paddy test; assay type: in vivo, Heteranthera limosa; details: Flood
Outline: (§3)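 Under a constant 3 cm flood, test compounds went directly into the paddy water. Following 13 to 15 days of greenhouse growth, treated species and controls were compared by eye.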

lambsquarters = assay: Test C pre-/postemergence test; assay type: in vivo, Chenopodium album; details: Postemergence; for Plant response rating, Lambsquarters: scale 0 to 100, 0 no effect, 100 complete control
Outline: as §1

wild oat = assay: Test C pre-/postemergence test; assay type: in vivo, Avena fatua; details: Postemergence; for Plant response rating, Oat, Wild: scale 0 to 100, 0 no effect, 100 complete control
Outline: as §1

corn = assay: Test A pre-/postemergence greenhouse test; assay type: in vivo, Zea mays; details: for Plant response rating, Corn: 0 to 100 scale where 0 is no effect and 100 is complete control; for Corn plant response rating: 0 to 100 scale
Outline: as §2

velvetleaf [2] = assay: Test A pre-/postemergence greenhouse test; assay type: in vivo, Abutilon theophrasti; details: for Plant response rating, Velvetleaf: 0 to 100 scale where 0 is no effect and 100 is complete control; for Velvetleaf plant response rating: 0 to 100 scale
Outline: as §2

giant foxtail [3] = assay: Test C pre-/postemergence test; assay type: in vivo, Setaria faberii; details: Postemergence; for Plant response rating, Foxtail, Giant: scale 0 to 100, 0 no effect, 100 complete control
Outline: as §1

rice = assay: Test C flooded paddy test; assay type: in vivo, Oryza sativa; details: Flood
Outline: as §3

wheat = assay: Test A pre-/postemergence greenhouse test; assay type: in vivo, Triticum aestivum; details: for Plant response rating, Wheat: 0 to 100 scale where 0 is no effect and 100 is complete control; for Wheat plant response rating: 0 to 100 scale
Outline: as §2

velvetleaf [4] = assay: Test C pre-/postemergence test; assay type: in vivo, Abutilon theophrasti; details: Postemergence; for Plant response rating, Velvetleaf: scale 0 to 100, 0 no effect, 100 complete control
Outline: as §1

Surinam grass = assay: Test C pre-/postemergence test; assay type: in vivo, Brachiaria decumbens; details: Postemergence; for Plant response rating, Surinam Grass: scale 0 to 100, 0 no effect, 100 complete control
Outline: as §1

Goosegrass = assay: Test C pre-/postemergence test; assay type: in vivo, Eleusin indica; details: Postemergence; for Plant response rating, Goosegrass: scale 0 to 100, 0 no effect, 100 complete control
Outline: as §1

johnsongrass = assay: Test C pre-/postemergence test; assay type: in vivo, Sorghum halepense; details: Postemergence; for Plant response rating, Johnsongrass: scale 0 to 100, 0 no effect, 100 complete control
Outline: as §1

barnyardgrass = assay: Test C flooded paddy test; assay type: in vivo, Echinochloa crus-galli; details: Flood
Outline: as §3

[5] = Postemergence, 500 g ai/ha, 0 is no effect, 100 is complete control
[6] = Preemergence, 125 g ai/ha, 0 no effect, 100 complete control
[7] = 62 g ai/ha, scale 0 to 100 (0 no effect, 100 complete control)
[8] = 250 g ai/ha, scale 0 to 100, 0 no effect, 100 complete control, 13 to 15 days

Cn1nc(C(F)(F)F)c(C[S+]([O-])c2cccc[n+]2[O-])c1OCC(F)(F)C(F)(F)F (centres unmarked) [Compound 78]
20: Plant response rating, Corn (corn; Postemergence, 125 g ai/ha) | Plant response rating, Velvetleaf (velvetleaf [4]; 250 g ai/ha)
30: Plant response rating, Ducksalad (duck salad; [7]) | Corn plant response rating (corn; [6]) | Plant response rating, Velvetleaf (velvetleaf [2]; Postemergence, 125 g ai/ha) | Plant response rating, Wheat (wheat; Postemergence, 125 g ai/ha) | Wheat plant response rating (wheat; [6])
70: Plant response rating, Ducksalad (duck salad; [8]) | Velvetleaf plant response rating (velvetleaf [2]; [5]) | Plant response rating, Rice (rice; [8]) | Plant response rating, Surinam Grass (Surinam grass; 250 g ai/ha)
0: Plant response rating (0 to 100), Ragweed (common ragweed; 31 g ai/ha) | Plant response rating (0 to 100), Ragweed (common ragweed; 62 g ai/ha) | Plant response rating, Ragweed (common ragweed; 125 g ai/ha) | Plant response rating, Ragweed (common ragweed; 250 g ai/ha) | Plant response rating (0 to 100), Bermudagrass (bermudagrass; 31 g ai/ha) | Plant response rating, Bermudagrass (bermudagrass; 62 g ai/ha) | Plant response rating, Bermudagrass (bermudagrass; 125 g ai/ha) | Plant response rating, Bermudagrass (bermudagrass; 250 g ai/ha) | Plant response rating (0 to 100), Lambsquarters (lambsquarters; 31 g ai/ha) | Plant response rating, Lambsquarters (lambsquarters; 62 g ai/ha) | Plant response rating, Lambsquarters (lambsquarters; 125 g ai/ha) | Plant response rating, Lambsquarters (lambsquarters; 250 g ai/ha) | Plant response rating (0 to 100), Oat, Wild (wild oat; 31 g ai/ha) | Plant response rating, Oat, Wild (wild oat; 62 g ai/ha) | Plant response rating, Oat, Wild (wild oat; 125 g ai/ha) | Plant response rating, Oat, Wild (wild oat; 250 g ai/ha) | Velvetleaf plant response rating (velvetleaf [2]; [6]) | Plant response rating (0 to 100), Foxtail, Giant (giant foxtail [3]; 31 g ai/ha) | Plant response rating, Foxtail, Giant (giant foxtail [3]; 62 g ai/ha) | Plant response rating (0 to 100), Velvetleaf (velvetleaf [4]; 31 g ai/ha) | Plant response rating (0 to 100), Velvetleaf (velvetleaf [4]; 62 g ai/ha) | Plant response rating, Velvetleaf (velvetleaf [4]; 125 g ai/ha) | Plant response rating (0 to 100), Surinam Grass (Surinam grass; 31 g ai/ha) | Plant response rating (0 to 100), Surinam Grass (Surinam grass; 62 g ai/ha) | Plant response rating, Surinam Grass (Surinam grass; 125 g ai/ha) | Plant response rating (0 to 100), Goosegrass (Goosegrass; 31 g ai/ha) | Plant response rating, Goosegrass (Goosegrass; 62 g ai/ha) | Plant response rating (0 to 100), Johnsongrass (johnsongrass; 31 g ai/ha) | Plant response rating, Johnsongrass (johnsongrass; 62 g ai/ha) | Plant response rating, Johnsongrass (johnsongrass; 125 g ai/ha) | Plant response rating, Barnyardgrass (barnyardgrass; [7])
80: Plant response rating, Foxtail, Giant (giant foxtail [1]; Postemergence, 125 g ai/ha) | Foxtail, Giant plant response rating (giant foxtail [1]; [5])
100: Plant response rating, Foxtail, Giant (giant foxtail [1]; Preemergence, 500 g ai/ha) | Plant response rating, Pigweed (redroot pigweed; Preemergence, 500 g ai/ha) | Plant response rating, Wheat (wheat; Preemergence, 500 g ai/ha)
10: Pigweed plant response rating (redroot pigweed; [6]) | Plant response rating, Rice (rice; [7]) | Plant response rating, Goosegrass (Goosegrass; 125 g ai/ha)
45: Plant response rating, Foxtail, Giant (giant foxtail [3]; 125 g ai/ha) | Plant response rating, Foxtail, Giant (giant foxtail [3]; 250 g ai/ha) | Plant response rating, Johnsongrass (johnsongrass; 250 g ai/ha)
50: Plant response rating, Pigweed (redroot pigweed; Postemergence, 125 g ai/ha) | Plant response rating, Barnyardgrass (barnyardgrass; [8])
40: Corn plant response rating (corn; [5])
90: Foxtail, Giant plant response rating (giant foxtail [1]; [6]) | Plant response rating, Corn (corn; Preemergence, 500 g ai/ha) | Plant response rating, Velvetleaf (velvetleaf [2]; Preemergence, 500 g ai/ha)
60: Pigweed plant response rating (redroot pigweed; [5]) | Wheat plant response rating (wheat; [5]) | Plant response rating, Goosegrass (Goosegrass; 250 g ai/ha)
